Test results published in the supplement of paper PMC10307832.

How the values were obtained:
Assay in all cases: relative viability (nuclei count vs DMSO), 5 days (fraction); higher = more cells survive
[1] = compound: C=CCn1c(=O)c2cnc(Nc3ccc(N4CCN(C)CC4)cc3)nc2n1-c1cccc(C(C)(C)O)n1 [Adavosertib] + Cc1nc(NC(=O)N2CCC[C@H]2C(N)=O)sc1-c1ccnc(C(C)(C)C(F)(F)F)c1 [Alpelisib] (partner 2 µM)
Outline: (§1)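 The day after seeding in 1536-well plates, lung cancer cell lines were treated by pin tool with a single drug, or with a fixed anchor-drug dose together with five library-drug doses (not always all listed) in √10 steps. After 5 days, a combined fix-and-stain solution (final 0.05% Triton X-100, 1% formaldehyde, 1 ug/ml Hoechst) was added. Nuclei counted on 4× images gave relative viability as treated counts over vehicle counts, reported as the median of duplicate plates.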

[2] = compound: COc1nc(N)nc2c1ncn2[C@@H]1O[C@H](CO)[C@@H](O)[C@@H]1O [Nelarabine] + CC(C)C[C@H](NC(=O)[C@H](Cc1ccccc1)NC(=O)c1cnccn1)B(O)O [Bortezomib] (partner 0.002 µM)
Outline: as §1

[3] = compound: COc1nc(N)nc2c1ncn2[C@@H]1O[C@H](CO)[C@@H](O)[C@@H]1O [Nelarabine] + C[C@]1(O)C[C@@H](c2nc(-c3ccc4ccc(-c5ccccc5)nc4c3)c3c(N)nccn32)C1 [Linsitinib] (partner 1 µM)
Outline: as §1

[4] = compound: C=CCn1c(=O)c2cnc(Nc3ccc(N4CCN(C)CC4)cc3)nc2n1-c1cccc(C(C)(C)O)n1 [Adavosertib] + O=C(c1cc(Cc2n[nH]c(=O)c3ccccc23)ccc1F)N1CCN(C(=O)C2CC2)CC1 [Olaparib] (partner 8 µM)
Outline: as §1

Row | Cell Line | relative viability ([1]; first compound 0.01 µM) | relative viability ([1]; first compound 0.03162 µM) | relative viability ([1]; first compound 0.1 µM) | relative viability ([1]; first compound 0.3162 µM) | relative viability ([2]; first compound 0.01 µM) | relative viability ([2]; first compound 0.03162 µM) | relative viability ([2]; first compound 0.1 µM) | relative viability ([2]; first compound 0.3162 µM) | relative viability ([2]; first compound 1 µM) | relative viability ([3]; first compound 0.01 µM) | relative viability ([3]; first compound 0.03162 µM) | relative viability ([3]; first compound 0.1 µM) | relative viability ([3]; first compound 0.3162 µM) | relative viability ([3]; first compound 1 µM) | relative viability ([4]; first compound 0.01 µM) | relative viability ([4]; first compound 0.03162 µM) | relative viability ([4]; first compound 0.1 µM) | relative viability ([4]; first compound 0.3162 µM)
1 | NCI-H596 | 0.51 | 0.464 | 0.457 | 0.422 | 0.906 | 0.651 | 1.28 | 0.96 | 0.982 | 1.15 | 1.2 | 1.07 | 1.16 | 1.04 | 0.736 | 0.791 | 0.52 | 0.591
2 | NCI-H3122 | 0.763 | 0.656 | 0.83 | 0.84 | 1.03 | 0.872 | – | 1.03 | 1.02 | 1.04 | 0.77 | – | 0.97 | 1.04 | 0.662 | 0.611 | 0.549 | 0.575
3 | LXF-289 | 1.08 | 1.01 | 1.09 | 1.07 | 1.13 | 0.99 | 0.995 | 1 | 1.01 | 1.01 | 0.935 | 0.969 | 0.997 | 0.949 | 1.1 | 1.06 | 1.13 | 1.02
4 | NCI-H2126 | 0.75 | 0.767 | 0.675 | 0.752 | 1.18 | 1.14 | 1.11 | 1.12 | 1.01 | 0.71 | 0.824 | 0.754 | 0.711 | 0.689 | 0.909 | 0.939 | 0.915 | 0.919
5 | HOP-62 | 0.924 | 1.02 | 1.14 | 0.955 | 1.46 | 0.392 | 1.11 | 1.18 | 1.02 | 0.933 | 0.967 | 1.11 | 0.872 | 0.801 | 0.429 | 0.3 | 0.663 | 0.254
6 | NCI-H647 | 1.1 | 1.1 | 1.02 | 0.508 | 1.28 | 0.988 | 0.897 | 1.29 | 1.14 | 1.7 | 1.02 | 1.26 | 1.21 | 1.35 | 0.549 | 0.581 | 0.459 | 0.209
7 | NCI-H2023 | 0.512 | 0.602 | 0.548 | 0.39 | 1.28 | 1.08 | 0.864 | 1.04 | 0.934 | 0.7 | 0.854 | 0.554 | 0.625 | 0.561 | 0.496 | 0.432 | 0.338 | 0.168
8 | SW 1573 | 0.724 | 0.786 | 0.751 | 0.761 | 1.63 | 1.12 | 1.18 | 1.25 | 1.1 | 0.82 | 0.646 | 0.848 | 0.799 | 0.73 | 0.507 | 0.564 | 0.663 | 0.372
9 | NCI-H727 | 0.545 | 0.593 | 0.629 | 0.577 | 1.09 | 0.768 | 0.869 | 0.95 | 0.795 | 0.28 | 0.331 | 0.299 | 0.306 | 0.271 | 0.73 | 0.845 | 0.683 | 0.744
10 | NCI-H441 | 0.807 | 0.745 | 0.764 | 0.596 | 0.357 | 0.71 | 0.613 | 0.519 | 0.567 | 0.679 | 0.605 | 0.614 | 0.52 | 0.603 | 0.533 | 0.477 | 0.577 | 0.462
11 | LCLC-97TM1 | – | 0.219 | 0.23 | 0.122 | 1.05 | – | 0.716 | 0.634 | 0.205 | 0.222 | 0.163 | 0.242 | 0.225 | 0.186 | 0.412 | 0.369 | 0.439 | 0.303
12 | NCI-H2405 | 0.765 | 0.878 | 0.874 | 0.764 | 1.06 | 0.943 | 0.908 | 1.03 | 0.954 | 0.98 | 0.853 | 0.898 | 0.966 | 0.872 | – | 0.865 | 0.907 | 0.898
13 | NCI-H460 | 0.543 | 0.518 | 0.374 | 0.21 | – | 1.34 | 1.69 | 1.37 | 1.1 | 1.09 | 0.891 | 1.12 | 1.21 | 0.731 | 0.391 | 0.376 | 0.308 | 0.405
14 | NCI-H650 | 1.15 | 1.1 | 1.17 | 0.935 | 1.13 | 0.703 | 0.758 | 0.977 | 0.897 | 0.927 | 0.947 | 0.868 | 0.874 | 1 | 0.397 | 0.412 | 0.397 | 0.207
15 | NCI-H661 | 0.492 | 0.968 | 0.503 | 0.595 | 0.986 | 0.932 | 0.866 | 0.912 | 0.866 | 0.719 | 0.859 | 0.723 | 0.555 | 0.535 | 0.779 | 0.828 | 0.721 | 0.449
16 | NCI-H1703 | 0.367 | 0.361 | 0.304 | 0.147 | 0.364 | 0.162 | 0.405 | 0.303 | 0.448 | 1.05 | 0.66 | 0.666 | 0.541 | 0.834 | 0.507 | 0.545 | 0.387 | 0.141
17 | LU99A | 0.48 | 0.511 | 0.476 | 0.319 | 1.33 | 1.09 | 1.15 | 1.23 | 1.33 | 0.534 | 0.461 | 0.669 | 0.581 | 0.617 | 0.238 | 0.224 | 0.209 | 0.179
18 | EPLC-272H | 0.918 | 0.893 | 0.868 | 0.723 | 1.04 | 0.925 | 0.823 | 0.887 | 0.981 | 1.35 | 1.11 | 1.18 | 1.09 | 1.21 | 0.955 | 0.674 | 0.566 | 0.2
